Tests used:
[1] = Next Generation Impactor (NGI) testing of pMDI prototype formulations; assay type: physicochemical; settings: for Fine Particle Dose: Stages 3 to MOC; for Actual Emitted dose: Throat stage to MOC
Method: The Next Generation Pharmaceutical Impactor (NGI) testing is performed using Copley and MSP instruments. Emitted dose or Ex-device is calculated as the total dose deposited in the NGI apparatus starting from Throat stage to Micro-orifice collector (MOC). The Fine Particle Dose (FPD) is calculated as the total dose deposited in Stages 3 to MOC of the NGI apparatus. Mass Median Aerodynamic Diameter (MMAD) and Geometric Standard Deviation (GSD) is calculated from aerodynamic particle size distribution of particles in different stages of the NGI apparatus.

[2] = Total emitted dose of the APIs from pMDI prototype formulations, HPLC assay; assay type: physicochemical; parameters: unit not given here; settings: pMDI Formulation 1-4; for emitted dose, Mean: Mean of ED 1 to ED 8
Method: An optimized HPLC assay method was developed for the assay of prototype formulations.
The total emitted dose from APIs ED 1 to ED 8 was then analyzed using the HPLC Assay.

Structure (SMILES)	% Emitted dose ([1]; Formulation 1) [%]	% Fine Particle Dose ([1]; Formulation 1) [%]	GSD ([1]; Formulation 1)	MMAD ([1]; Formulation 1) [µm]	Fine Particle Dose ([1]; Formulation 1) [µg]	Actual Emitted dose ([1]; Formulation 1) [µg]	% Emitted dose ([1]; Formulation 2) [%]	% Fine Particle Dose ([1]; Formulation 2) [%]	GSD ([1]; Formulation 2)	MMAD ([1]; Formulation 2) [µm]	Fine Particle Dose ([1]; Formulation 2) [µg]	% Emitted dose ([1]; Formulation 4) [%]	% Fine Particle Dose ([1]; Formulation 4) [%]	GSD ([1]; Formulation 4)	MMAD ([1]; Formulation 4) [µm]	Fine Particle Dose ([1]; Formulation 4) [µg]	Actual Emitted dose ([1]; Formulation 4) [µg]	emitted dose ([2]; ED 7)	emitted dose ([2]; ED 8)	emitted dose, Mean [2]	further results
CCCCCc1cc(O)c(C/C=C(\C)CCC=C(C)C)c(O)c1 [CBG, cannabigerol]	115	43	3	4.7	129.5	345.7	109	39	3	4.65	118.0	106	34	3	5.25	67.5	212.1	331.0	332.1	335.2	Actual Emitted dose ([1]; Formulation 2): 328.3 µg; % Emitted dose ([1]; Formulation 3): 111%; % Fine Particle Dose ([1]; Formulation 3): 43%; GSD ([1]; Formulation 3): 3; MMAD ([1]; Formulation 3): 4.5 µm; Fine Particle Dose ([1]; Formulation 3): 127.5 µg; Actual Emitted dose ([1]; Formulation 3): 331.6 µg; emitted dose ([2]; ED 3): 338.2; emitted dose ([2]; ED 4): 353.3; emitted dose ([2]; ED 5): 323.7; emitted dose ([2]; ED 6): 332.9
C=C(C)[C@@H]1CCC(C)=C[C@H]1c1c(O)cc(CCC)cc1O [CBDV, cannabidivarin]	–	–	–	–	–	–	–	–	–	–	–	98	33	3	5.1	66.5	195.2	265.4	278.5	272.0	% Emitted dose ([1]; Formulation 3): 91%; % Fine Particle Dose ([1]; Formulation 3): 36%; GSD ([1]; Formulation 3): 3; MMAD ([1]; Formulation 3): 4.6 µm; Fine Particle Dose ([1]; Formulation 3): 108.0 µg; Actual Emitted dose ([1]; Formulation 3): 272.0 µg
CCCCCc1cc(O)c2c(c1)OC(C)(CCC=C(C)C)C=C2 (stereo not shown) [CBC, cannabichromene]	89	36	3	4.5	108.6	266.1	–	–	–	–	–	105	36	3	5.2	71.1	209.4	262.4	269.8	266.1	–
C=C(C)[C@@H]1CCC(C)=C[C@H]1c1c(O)cc(CCCCC)cc1O [CBD, cannabidiol, reference compound]	104	41	3	4.6	122.8	312.1	96	37	3	4.5	111.0	96	36	3	4.75	109.5	288.1	301.6	304.3	298.0	Actual Emitted dose ([1]; Formulation 2): 288.7 µg; % Emitted dose ([1]; Formulation 3): 101%; % Fine Particle Dose ([1]; Formulation 3): 40%; GSD ([1]; Formulation 3): 3; MMAD ([1]; Formulation 3): 4.4 µm; Fine Particle Dose ([1]; Formulation 3): 120.8 µg; Actual Emitted dose ([1]; Formulation 3): 303.0 µg; emitted dose ([2]; ED 1): 287.0; emitted dose ([2]; ED 2): 289.2; emitted dose ([2]; ED 3): 308.0; emitted dose ([2]; ED 4): 316.2; emitted dose ([2]; ED 5): 284.9; emitted dose ([2]; ED 6): 292.6
CCCCCc1cc(O)c2c(c1)OC(C)(C)c1ccc(C)cc1-2 [CBN, cannabinol]	–	–	–	–	–	–	87	35	3	4.4	105.8	95	34	3	5	68.2	189.1	255.7	263.5	259.6	Actual Emitted dose ([1]; Formulation 2): 259.6 µg
C[N+]1(C)CCC(OC(=O)C(O)(c2ccccc2)C2CCCC2)C1 (stereo not shown) [Glycopyrronium, glycopyrronium, reference compound]	104	29	2	4.9	7.8	28.0	116	28	2	5.15	7.7	104	25	2	5.65	6.8	28.1	27.0	30.2	29.0	Actual Emitted dose ([1]; Formulation 2): 31.4 µg; % Emitted dose ([1]; Formulation 3): 106%; % Fine Particle Dose ([1]; Formulation 3): 31%; GSD ([1]; Formulation 3): 2; MMAD ([1]; Formulation 3): 5.1 µm; Fine Particle Dose ([1]; Formulation 3): 8.3 µg; Actual Emitted dose ([1]; Formulation 3): 28.6 µg; emitted dose ([2]; ED 1): 27.6; emitted dose ([2]; ED 2): 28.7; emitted dose ([2]; ED 3): 27.5; emitted dose ([2]; ED 4): 28.5; emitted dose ([2]; ED 5): 30.3; emitted dose ([2]; ED 6): 32.4

Source: patent publication US20240325413A1, “FORMULATIONS FOR THE TREATMENT OF RESPIRATORY DISORDERS” (484 Science Corp, priority 2021, published 2024)
